Data: a compilation of properties of binary mixtures (doi:10.1016/j.molliq.2022.120022)

Assay: xn = mol fraction of the nth substance listed
Details: 100 kPa

O + C[N+](C)(C)CCO.NCC(=O)[O-]
x2 = 0
Details | speed of sound [m/s] | viscosity [mPa·s]
298.15 K | – | 0.89
303.15 K | – | 0.8
308.15 K | – | 0.72
313.15 K | 1529 | 0.66
318.15 K | – | 0.61
323.15 K | – | 0.56

C[N+](C)(C)CCO.NCC(=O)[O-] + O
Details | speed of sound [m/s] | viscosity [mPa·s]
298.15 K, x1 = 0.1 | 1927.4 | 5.83
298.15 K, x1 = 0.2004 | 2082.9 | 23.73
298.15 K, x1 = 0.3 | 2134.5 | 56.96
298.15 K, x1 = 0.3996 | 2152.4 | 99
298.15 K, x1 = 0.5004 | 2156.2 | 154.4
298.15 K, x1 = 0.6004 | 2156 | 216
298.15 K, x1 = 0.6966 | 2153.1 | 274
298.15 K, x1 = 0.8014 | 2151.8 | 348
298.15 K, x1 = 0.8996 | 2146 | 420
303.15 K, x1 = 0.1 | 1922.7 | 5.01
303.15 K, x1 = 0.2004 | 2073.3 | 19.44
303.15 K, x1 = 0.3 | 2122.9 | 45.62
303.15 K, x1 = 0.3996 | 2140.5 | 77.3
303.15 K, x1 = 0.5004 | 2144.8 | 115.5
303.15 K, x1 = 0.6004 | 2143.4 | 160.8
303.15 K, x1 = 0.8014 | 2136.2 | 257
303.15 K, x1 = 0.8996 | 2133.2 | 306
303.15 K, x1 = 1 | 2129.1 | 363
308.15 K, x1 = 0.2004 | 2063.4 | 16.15
308.15 K, x1 = 0.3 | 2111.5 | 37.06
308.15 K, x1 = 0.5004 | 2132.2 | 89.6
308.15 K, x1 = 0.6004 | 2130.3 | 122.8
308.15 K, x1 = 0.6966 | 2127.8 | 153.5
308.15 K, x1 = 0.8014 | 2125.2 | 191.6
308.15 K, x1 = 0.8996 | 2120.1 | 227
308.15 K, x1 = 1 | 2116 | 264
313.15 K, x1 = 0.1 | 1911.9 | 3.8
313.15 K, x1 = 0.2004 | 2053.2 | 13.57
313.15 K, x1 = 0.3 | 2099.8 | 30.58
313.15 K, x1 = 0.6004 | 2118 | 95.3
313.15 K, x1 = 0.6966 | 2115 | 118.6
313.15 K, x1 = 0.8014 | 2112.1 | 147.4
313.15 K, x1 = 0.8996 | 2107.2 | 172.7
313.15 K, x1 = 1 | 2103.5 | 201
318.15 K, x1 = 0.2004 | 2043 | 11.51
318.15 K, x1 = 0.6004 | 2105.6 | 75.6
318.15 K, x1 = 0.6966 | 2102.3 | 92.7
318.15 K, x1 = 0.8014 | 2098.7 | 114.4
318.15 K, x1 = 0.8996 | 2094.2 | 134.5
323.15 K, x1 = 0.1 | 1899.4 | 2.97
323.15 K, x1 = 0.2004 | 2032.2 | 9.83
323.15 K, x1 = 0.3 | 2076.6 | 21.79
323.15 K, x1 = 0.3996 | 2091.4 | 34.59
323.15 K, x1 = 0.5004 | 2094.9 | 46.6
323.15 K, x1 = 0.6004 | 2092.8 | 60.8
323.15 K, x1 = 0.6966 | 2089.9 | 74.1
323.15 K, x1 = 0.8014 | 2086.3 | 91
323.15 K, x1 = 0.8996 | 2081.8 | 105.2
323.15 K, x1 = 1 | 2078.3 | 121.1
